Patent US11091451B2, “SHMT inhibitors and uses thereof” (Raze Therapeutics, Inc., priority 2016, dated 2021)

Columns and labels:
[1] = molecular target: human cytosolic Serine Hydroxymethyl transferase 1 (SHMT1) (Homo sapiens (Human), UniProt P34896); assay: SHMT1 activity inhibition assay (serine production from glycine and CH2-THF, mass spectroscopy); format: biochemical; conditions: 60 minutes at room temperature
From the text: (§1) Full length human cytosolic Serine Hydroxymethyl transferase 1 (SHMT1, residues 1-483 in Uniport ID P34896) was expressed as an N-terminal His6 tagged protein and purified in E. coli using nickel capture followed by size-exclusion chromatography. Human mitochondrial SHMT2 (residues 30-504 in Uniprot ID P34897) with mitochondrial leader sequence deleted was expressed as an N-terminal His6 tagged protein and purified in E. coli using nickel capture followed by size-exclusion chromatography.
(§2) Serine hydroxymethyltransferases catalyze the reversible hydroxymethylation of glycine to serine, with methylene tetrahydrofolate (CH2-THF) providing the additional carbon. SHMT1 and SHMT2 activity was determined by measuring serine production from glycine and CH2-THF using mass spectroscopy. Briefly, 15 ul of 0.5 mM glycine and 0.2 mM CH2-THF in 20 mM TEA, pH8.0, 0.2 mM NADPH were added to 384 well plate containing 0, 0.05 mM, 0.005 mM or 0.0005 mM of inhibitor. 15 ul of SHMT1 or 2 were added to initiate the reaction. The plate was incubated for 60 minutes at room temperature and the reaction was quenched by the addition of 30 ul of 10% trichloroacetic acid. Serine produced was analyzed using Rapidfire 360 and API4000^+ in the positive ion mode.

[2] = molecular target: Human mitochondrial SHMT2 (Homo sapiens (Human), UniProt P34897); assay: SHMT2 activity inhibition assay (serine production from glycine and CH2-THF, mass spectroscopy); format: biochemical; conditions: 60 minutes at room temperature
Sequence of Human mitochondrial SHMT2 (P34897 30-504): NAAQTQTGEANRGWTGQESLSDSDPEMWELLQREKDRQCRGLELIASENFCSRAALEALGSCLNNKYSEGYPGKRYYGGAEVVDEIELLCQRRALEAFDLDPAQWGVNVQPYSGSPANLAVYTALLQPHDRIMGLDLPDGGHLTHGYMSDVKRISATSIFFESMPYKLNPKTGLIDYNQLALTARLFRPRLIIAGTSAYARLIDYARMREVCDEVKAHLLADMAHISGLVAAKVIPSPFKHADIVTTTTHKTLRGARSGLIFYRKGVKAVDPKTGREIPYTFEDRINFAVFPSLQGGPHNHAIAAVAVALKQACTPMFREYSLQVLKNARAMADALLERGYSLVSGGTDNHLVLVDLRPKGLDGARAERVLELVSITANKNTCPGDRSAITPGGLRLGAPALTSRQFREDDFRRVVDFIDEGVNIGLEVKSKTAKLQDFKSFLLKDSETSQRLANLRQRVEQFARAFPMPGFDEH
From the text: as §1
as §2, with “15 ul of SHMT1 or 2 were added to initiate the reaction.” left out

Sequence of human cytosolic Serine Hydroxymethyl transferase 1 (SHMT1) (P34896 whole entry, the tested form may be a part): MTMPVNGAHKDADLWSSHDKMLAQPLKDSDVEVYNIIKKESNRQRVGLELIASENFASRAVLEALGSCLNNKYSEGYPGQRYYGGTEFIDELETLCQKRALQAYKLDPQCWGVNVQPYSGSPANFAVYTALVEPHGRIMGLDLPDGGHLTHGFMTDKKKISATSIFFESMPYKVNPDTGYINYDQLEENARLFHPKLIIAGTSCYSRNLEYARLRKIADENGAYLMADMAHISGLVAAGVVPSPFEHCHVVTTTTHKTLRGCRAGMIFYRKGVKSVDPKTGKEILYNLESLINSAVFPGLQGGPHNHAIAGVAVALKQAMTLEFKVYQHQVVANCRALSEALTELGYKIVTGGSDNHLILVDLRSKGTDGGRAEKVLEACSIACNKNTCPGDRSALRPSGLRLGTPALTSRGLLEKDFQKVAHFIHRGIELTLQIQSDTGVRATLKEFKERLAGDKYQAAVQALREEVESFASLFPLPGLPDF

Row | IC50 [1] [µM] | IC50 [2] [µM] | Structure (SMILES)
1 | 100 to 500 | 100 to 500 | CC(C)C[C@H](NC(=O)Cc1csc(-c2ccc(Cl)cc2Cl)n1)C(=O)O [Compound I-47]
2 | < 1 | < 1 | Cc1ccc(-c2cc(Cl)ccc2-c2cccc(CC(=O)NC(C)(C)C(=O)O)c2)cc1 [Compound I-3, 2-[[2-[3-[4-Chloro-2-(p-tolyl)phenyl]phenyl]acetyl]amino]-2-methyl-propanoic Acid]
3 | 1 to 10 |  | CC(C)(NC(=O)Cc1ccnc(-c2ccc(Cl)cc2-c2ccccc2)c1)C(=O)O [Compound I-20]
4 | < 1 | 1 to 10 | CC(C)(NC(=O)Cc1csc(-c2ccc3c(c2-c2ccccc2)OCCO3)n1)C(=O)O [Compound I-2, 2-Methyl-2-[[2-[2-(5-phenyl-2,3-dihydro-1,4-benzodioxin-6-yl)thiazol-4-yl]acetyl]amino] propanoic Acid]
5 | 100 to 500 | 100 to 500 | CC(C)c1ccc(-c2nc(CC(=O)N[C@@H](Cc3ccccc3)C(=O)O)cs2)cc1 [Compound I-56]
6 | 100 to 500 | 100 to 500 | NC(=O)Cc1cc(Cl)ccc1-c1nc(CC(=O)NCC(=O)O)cs1 [Compound I-65, 2-(2-[2-[2-(carbamoylmethyl)-4-chlorophenyl]-1,3-thiazol-4-yl]acetamido)acetic Acid]
7 | 10 to 100 | 10 to 100 | CC(NC(=O)Cc1csc(-c2cccc(Br)c2)n1)C(=O)O (centres unmarked) [Compound I-43]
8 | 10 to 100 | 1 to 10 | O=C(Cc1csc(-c2ccc3c(c2)OCCO3)n1)NC1(C(=O)O)CCC1 [Compound I-37]
9 | 1 to 10 | < 1 | CC(C)(NC(=O)Cc1cccc(-c2ccc(Cl)cc2-c2cccc(C(N)=O)c2)c1)C(=O)O [Compound I-19, 2-[[2-[3-[2-(3-Carbamoylphenyl)-4-chloro-phenyl]phenyl]acetyl]amino]-2-methyl-propanoic Acid]
10 | 10 to 100 | 10 to 100 | O=C(Cc1csc(-c2ccc(Cl)cc2Cl)n1)NC1(C(=O)O)CC1 [Compound I-45]
11 | 10 to 100 | 1 to 10 | CCc1cc(Cl)ccc1-c1nc(CC(=O)NC(C)(C)C(=O)O)cs1 [Compound I-27]
12 | < 1 | < 1 | CC(C)(NC(=O)Cc1csc(-c2ccc(Cl)cc2-c2cccc3c2COC3)n1)C(=O)O [Compound I-7]
13 | < 1 | < 1 | COc1cc(-c2nc(CC(=O)NC(C)(C)C(=O)O)cs2)c(-c2ccccc2)cc1Cl [Compound I-8, 2-[[2-[2-(4-chloro-5-methoxy-2-phenyl-phenyl)thiazol-4-yl]acetyl]amino]-2-methyl-propanoic Acid]
14 | 100 to 500 | 100 to 500 | O=C(Cc1csc(-c2ccc(Cl)cc2)n1)N[C@@H](C(=O)O)c1ccccc1 [Compound I-63]
15 | 100 to 500 | 100 to 500 | CC[C@@H](C)[C@H](NC(=O)Cc1csc(-c2ccc(Cl)cc2Cl)n1)C(=O)O [Compound I-67]
16 | 10 to 100 | 10 to 100 | O=C(O)CNC(=O)Cc1csc(-c2ccc(Cl)c(-c3ccccc3)c2)n1 [Compound I-36]
17 | 100 to 500 | 100 to 500 | O=C(Cc1csc(-c2cccc(Br)c2)n1)NC(Cc1ccccc1)C(=O)O (centres unmarked) [Compound I-60]
18 | 1 to 10 | < 1 | CC(=O)N1CCC(c2cc(Cl)ccc2-c2nc(CC(=O)NC(C)(C)C(=O)O)cs2)CC1 [Compound I-11, 2-[[2-[2-[2-(1-Acetyl-4-piperidyl)-4-chloro-phenyl]thiazol-4-yl]acetyl]amino]-2-methyl-propanoic Acid]
19 | 100 to 500 | 100 to 500 | O=C(O)CNC(=O)Cc1csc(-c2ccc(Cl)cc2CCO)n1 [Compound I-70, 2-(2-[2-[4-chloro-2-(2-hydroxyethyl)phenyl]-1,3-thiazol-4-yl]acetamido) acetic Acid]
20 | 1 to 10 |  | COc1ccc(-c2nc(CC(=O)NC(C)(C)C(=O)O)cs2)c(-c2ccccc2)c1 [Compound I-13, 2-[[2-[2-(4-Methoxy-2-phenyl-phenyl)thiazol-4-yl]acetyl]amino]-2-methyl-propanoic Acid]
